Measurements as given in patent publication US9868737B2, “Pyridino[1,2-A]pyrimidone analogue used as MTOR/P13K inhibitor” (CISEN PHARMACEUTICAL CO., LTD., priority 2014, dated 2018).
Like-named read-outs stand apart in the source and are kept apart here.

System: MCF-7 cells
Test: In vitro test of cell activity (MCF-7 cells, insulin stimulation, ELISA-One fluorescence)
Type: cell-based
Settings: Homo sapiens, MCF7, MCF-7 cells; for inhibition at 1 µM: conc. 1 μM; for inhibition at 0.5 µM: conc. 0.5 μM; for inhibition at 0.25 µM: conc. 0.25 μM
Method: Example In Vitro Tests of Cell Activities Experimental Steps and Methods:
1) MCF-7 cells were inoculated at the density of 2.5×10^4 cells/well into 96-well plates (the culture medium used should be a complete culture medium containing 10% FBS).
2) On the next day, the medium in each well was drawn out. A certain concentration (preliminary screening) or a series of concentration (IC50 test) of compounds were dissolved in a culture medium without serum and added to the 96-well plates to culture cells for 2 hours.
3) Insulin was dissolved in a culture medium without serum, added to the cultured cells and incubated for 30 minutes, wherein the final concentration of insulin was […].
4) A lysis solution was prepared according to the following method during the waiting period for the reaction:
a) Enhancer solution was removed from the refrigerator to melt in advance.
b) Enhancer solution was diluted 10 times with the 5× Lysis Buffer to give a concentrated lysis solution.
c) The concentrated lysis solution was diluted 5 times with double distilled water to give the lysis solution.
5) The medium in each well was completely removed and each well was quickly rinsed with PBS once.
6) 150 μl of the freshly prepared lysis solution was added to each well and shaked at room temperature for 10 minutes.
7) After confirming that all cells were detached, the lysis solution together with the cell fragments was transferred into a 1.5 ml tube.
8) The tube was shaked on vortes mixer to make the lysis solution and cells mix completely and then the mixture was centrifugated at 4° C. under 12000 g for 10 minutes.
9) The number of strips of ELISA-one micro-well plate that is required was calculated. The needless strips were removed from the frame, put back into the storage bag and sealed. Before the strips of micro-well plate were used, 200 μl of double distilled water was used to rinse each well to remove preservative.
10) 50 μl of antibody mixture was added to each well. (The antibody mixture solution was prepared by mixing the medium antibody reagent and the enzyme labeled antibody reagent with an equal proportion. The preparation of antibody mixture didn't need vortex.)
11) 25 μl of cell lysates was added to each well of ELISA-One micro-well plate. The micro-well plate was covered with adhesive sealing film and incubated on a micro-well plate oscillation instrument at room temperature for 1 hour.
12) Each well was rinsed with 150 μl of 1× rinsing buffer 3 times. After the last rinsing, the rinsing buffer in the well was completely removed. If necessary, the 1× rinsing buffer could be allowed to stay in the micro-well plate for up to 30 minutes so that the substrate mixed solution could be prepared during such time period.
13) The substrate mixed solution should be prepared just before each use, 10 μl of the substrate mixed solution was added to each well and the micro-well plate was sealed with tin-foil and incubated on the micro-well plate oscillation instrument at room temperature for 10 minutes.
14) 10 μl of stop solution was added to each well and mixed slightly (5-10 seconds) on the micro-well plate oscillation instrument.
15) The corresponding ELISA-One filter group was assembled and used to read the fluorescence signal intensity.

IC50 (read-out: IC50 p-AKT) [nM]	IC50 (read-out: IC50 p-p70S6K) [nM]	SMILES	inhibition at 0.5 µM (read-out: % inhibition AKT) [%]	inhibition at 0.5 µM (read-out: % inhibition p70s6k) [%]	further results
≤ 50	100 to 250	COc1ncc(-c2ccc3nccc(=O)n3c2)cc1NS(=O)(=O)c1ccccc1C [compound 20]			inhibition at 1 µM (read-out: % inhibition AKT): 93.8%; inhibition at 1 µM (read-out: % inhibition p70s6k): 89.9%
≤ 50	≤ 50	COc1ncc(-c2ccc3nccc(=O)n3c2)cc1NS(=O)(=O)c1ccc(C)s1 [compound 35]	93.3	86	
		COc1ncc(-c2ccc3nccc(=O)n3c2C)cc1NS(=O)(=O)c1ccc(F)cc1C [compound 57]	58.6	47.2	
		COc1ncc(-c2ccc3ncc(Cl)c(=O)n3c2)cc1NS(=O)(=O)c1nnc(C)s1 [compound 158]			inhibition at 0.25 µM (read-out: % inhibition AKT): -21.8%; inhibition at 0.25 µM (read-out: % inhibition p70s6k): 5.1%
50 to 100		COc1ncc(-c2ccc3ncc(OCC4COC4)c(=O)n3c2)cc1NS(=O)(=O)c1cccc(C)c1 [compound 248]			
50 to 100	100 to 250	COc1ncc(-c2ccc3ncc(Cl)c(=O)n3c2)cc1NS(=O)(=O)c1ncc(C)s1 [compound 162]			inhibition at 0.25 µM (read-out: % inhibition AKT): 77.8%; inhibition at 0.25 µM (read-out: % inhibition p70s6k): 64.9%
≤ 50	100 to 250	COc1ncc(-c2ccc3ncc(N)c(=O)n3c2)cc1NS(=O)(=O)c1ccc(F)cc1C [compound 89]	93	88.1	
50 to 100	100 to 250	COc1ncc(-c2ccc3nccc(=O)n3c2)cc1NS(=O)(=O)c1ccc(C#N)cc1 [compound 21]			inhibition at 1 µM (read-out: % inhibition AKT): 94.1%; inhibition at 1 µM (read-out: % inhibition p70s6k): 91.2%
		COc1ncc(-c2ccc3nccc(=O)n3n2)cc1NS(=O)(=O)c1cccc(F)c1 [compound 79]	63.3	15.9	
≤ 50		COCCOc1cnc2ccc(-c3cnc(OC)c(NS(=O)(=O)c4sc(Cl)cc4C)c3)cn2c1=O [compound 196]			
≤ 50	50 to 100	COc1ncc(-c2ccc3ncc(F)c(=O)n3c2)cc1NS(=O)(=O)c1cc(F)ccc1F [compound 65]	84.8	89.7	
		COc1ncc(-c2ccc3ncc(O)c(=O)n3c2)cc1NS(=O)(=O)c1ccccc1Cl [compound 102]			inhibition at 0.25 µM (read-out: % inhibition AKT): 37.3%; inhibition at 0.25 µM (read-out: % inhibition p70s6k): 18.2%
100 to 250	100 to 250	COc1ncc(-c2ccc3ncc(-n4ccc(C)n4)c(=O)n3c2)cc1NS(=O)(=O)c1sc(C)nc1C [compound 218]			inhibition at 0.25 µM (read-out: % inhibition AKT): 85.2%; inhibition at 0.25 µM (read-out: % inhibition p70s6k): 85%
		COc1ncc(-c2cn3c(=O)ccnc3cc2C)cc1NS(=O)(=O)c1ccc(C(F)(F)F)cc1 [compound 130]	2.3	2.6	
> 250		COc1ncc(-c2ccc3ncc(OCC(=O)O)c(=O)n3c2)cc1NS(=O)(=O)c1ccc(F)cc1F [compound 177]			
≤ 50	≤ 50	COCCOc1cnc2ccc(-c3cnc(OC)c(NS(=O)(=O)c4sc(C)nc4C)c3)cn2c1=O [compound 176]			
		COc1ncc(-c2cn3c(=O)ccnc3cn2)cc1NS(=O)(=O)c1c(F)cccc1F [compound 46]	60.3	13.3	
		COc1ncc(-c2cn3c(=O)ccnc3cn2)cc1NS(=O)(=O)c1ccc(F)cc1F [compound 39, 2,4-difluoro-N-(2-methoxy-5-(4-oxo-4H-pyrazino[1,2-a]pyrimidin-7-yl)pyridin-3-yl)benzsulfamide]	-28.6	7.1	
		Cc1ncc(-c2ccc3nccc(=O)n3c2)cc1NS(=O)(=O)c1ccccc1F [compound 10]			inhibition at 1 µM (read-out: % inhibition AKT): 81.9%; inhibition at 1 µM (read-out: % inhibition p70s6k): 27.8%
100 to 250	50 to 100	COc1ncc(-c2ccc3ncc(Cl)c(=O)n3c2)cc1NS(=O)(=O)c1c(C)n[nH]c1C [compound 163]			inhibition at 0.25 µM (read-out: % inhibition AKT): 78.1%; inhibition at 0.25 µM (read-out: % inhibition p70s6k): 88.8%
≤ 50		CNc1nc(C)c(S(=O)(=O)Nc2cc(-c3ccc4ncc(OCCOC)c(=O)n4c3)cnc2OC)s1 [compound 189]			

IC50 (read-out: IC50 p-AKT) [nM]	IC50 (read-out: IC50 p-p70S6K) [nM]	SMILES	inhibition at 0.5 µM (read-out: % inhibition AKT) [%]	inhibition at 0.5 µM (read-out: % inhibition p70s6k) [%]	further results
≤ 50	≤ 50	COc1ncc(-c2ccc3ncc(F)c(=O)n3c2)cc1NS(=O)(=O)c1ccccc1F [compound 64]	87.8	91.7	
≤ 50	50 to 100	COc1ncc(-c2ccc3ncc(C)c(=O)n3c2)cc1NS(=O)(=O)c1ccccc1F [compound 84]	93.8	88.7	
≤ 50		COCCOc1cnc2ccc(-c3cnc(OC)c(NS(=O)(=O)c4sc(N)nc4C)c3)cn2c1=O [compound 183]			
		COc1ncc(-c2ccc3nccc(=O)n3c2)cc1NS(=O)(=O)C1CC1 [compound 9]			inhibition at 1 µM (read-out: % inhibition AKT): 76%; inhibition at 1 µM (read-out: % inhibition p70s6k): 38.4%
		COc1ncc(-c2ccc3nccc(=O)n3c2C)cc1NS(=O)(=O)c1ccccc1F [compound 55]	65.7	42.3	
50 to 100	50 to 100	COc1ncc(-c2ccc3ncc(Cl)c(=O)n3c2)cc1NS(=O)(=O)c1cc(F)cc(F)c1 [compound 147]			inhibition at 0.25 µM (read-out: % inhibition AKT): 80.3%; inhibition at 0.25 µM (read-out: % inhibition p70s6k): 81.3%
50 to 100	50 to 100	COc1ncc(-c2ccc3nccc(=O)n3c2)cc1NS(=O)(=O)c1cccc(F)c1 [compound 3]			inhibition at 1 µM (read-out: % inhibition AKT): 95.9%; inhibition at 1 µM (read-out: % inhibition p70s6k): 52.4%
≤ 50	100 to 250	COc1ncc(-c2ccc3nccc(=O)n3c2)cc1NS(=O)(=O)c1sccc1C [compound 37]	95.8	90.3	
50 to 100	100 to 250	COc1ncc(-c2ccc3nccc(=O)n3c2)cc1NS(=O)(=O)c1ccc(F)cc1 [compound 11]			inhibition at 1 µM (read-out: % inhibition AKT): 94.7%; inhibition at 1 µM (read-out: % inhibition p70s6k): 52.3%
50 to 100		COc1ncc(-c2ccc3nc(N)cc(=O)n3c2)cc1NS(=O)(=O)c1sc(C)nc1C [compound 236, N-(5-(2-amino-4-oxo-4H-pyrido[1,2-a]pyrimidin-7-yl)-2-methoxypyridin-3-yl)-2,4-dimethylthiazolyl-5-sulfamide]			
		COc1ncc(-c2ccc3nccc(=O)n3n2)cc1NS(=O)(=O)c1ccccc1Cl [compound 74]	74.1	26	
≤ 50		COCCOc1cnc2ccc(-c3cnc(OC)c(NS(=O)(=O)c4ccc(OC)nc4C)c3)cn2c1=O [compound 187]			
≤ 50	100 to 250	CCOc1cnc2ccc(-c3cnc(OC)c(NS(=O)(=O)c4ccc(F)cc4Cl)c3)cn2c1=O [compound 172]			inhibition at 0.25 µM (read-out: % inhibition AKT): 83.5%; inhibition at 0.25 µM (read-out: % inhibition p70s6k): 74.4%
		COc1ncc(-c2ccc3ncc(-n4ccc(C)n4)c(=O)n3c2)cc1NS(=O)(=O)c1ccc(F)cc1Cl [compound 219]			inhibition at 0.25 µM (read-out: % inhibition AKT): 41.7%; inhibition at 0.25 µM (read-out: % inhibition p70s6k): 13.4%
≤ 50	≤ 50	COc1ncc(-c2ccc3ncc(F)c(=O)n3c2)cc1NS(=O)(=O)c1ccccc1Cl [compound 63]	89.5	92.9	
≤ 50	100 to 250	COc1ncc(-c2ccc3ncc(C)c(=O)n3c2)cc1NS(=O)(=O)c1cccc(F)c1 [compound 86]	92.8	88.1	
≤ 50	100 to 250	COc1ncc(-c2ccc3nccc(=O)n3c2)cc1NS(=O)(=O)c1ccc(Cl)cc1 [compound 23]			inhibition at 1 µM (read-out: % inhibition AKT): 95.7%; inhibition at 1 µM (read-out: % inhibition p70s6k): 93.9%
≤ 50		COCCOc1cnc2ccc(-c3cnc(OC)c(NS(=O)(=O)c4ccc(C)nc4C)c3)cn2c1=O [compound 192]			
≤ 50	100 to 250	COc1ncc(-c2ccc3ncc(N)c(=O)n3c2)cc1NS(=O)(=O)c1ccc(F)cc1Cl [compound 88]	94.8	91	
≤ 50		COCCOc1cnc2ccc(-c3cnc(OC)c(NS(=O)(=O)c4cc(Cl)ccc4F)c3)cn2c1=O [compound 272]			
		COc1ncc(-c2ccc3nccc(=O)n3n2)cc1NS(=O)(=O)c1c(F)cccc1F [compound 73]	40.5	-2.1	
